The results in this text go back to patent US9725436B2, “Cytochrome P450 inhibitors and their method of use” (CORTENDO AB (PUBL), priority 2013, dated 2017).

pIC50: −log10 of the molar value.

In data set [1] the target is recombinant CYP-17 (Homo sapiens (Human), UniProt P05093). The data set can be described thus: Cyp17 assay protocol (3H-acetic acid release from [21-3H] 17α-hydroxyl-Pregnenolone). Conditions: AD293 cells over-expressing recombinant CYP-17. The data set is classed as cell-based. Here is the method:
Cyp17 assay protocol: AD293 cells that stably over-express recombinant CYP-17 were seeded in 96 well plates coated with poly D-lysine (15,000 cell per well) and incubated at 37° C. for 24 hours in Dulbecco's Modified Eagle Medium (DMEM) with Fetal Bovine Serum (FBS) that is stripped of hormones by charcoal treatment. The media is then removed, the cells are washed once with Phosphate buffer saline solution, and 50 μL Dulbecco's Modified Eagle Medium (DMEM) with Fetal Bovine Serum (FBS) that is stripped of hormones by charcoal treatment is added. Compounds of the disclosure are then added to the wells in eight concentration spanning 10 μM to 4.5 nM, and the plates are incubated for an additional 60 minutes at 37° C. [21-^3H] 17α-hydroxyl-Pregnenolone is then added (50 nCi per well, 31.25 nM) and the plates are incubated for an additional 4 hours at 37° C. The media is then collected, 200 μL of chloroform is added, and the mixture is shaken for 1 hour. The aqueous layer is then separated and analyzed for the presence of ^3H-acetic acid using a Perkin Elmer Topcount NXT to determine IC50s of the compounds of the disclosure.

Data set [2] has as its target recombinant CYP-21 (Homo sapiens (Human), UniProt P08686). The data set can be described thus: Cyp21 assay protocol (11-deoxycortisol formation from 17α-OH Progesterone, LC/MS). Format: cell-based. The conditions noted are these: AD293 cells over-expressing recombinant CYP-21. On the procedure:
(§1) Cyp21 assay protocol: AD293 cells that stably over-express recombinant CYP-21 were seeded in 96 well plates coated with poly D-lysine (10,000 cell per well) and incubated at 37° C. for 24 hours in Dulbecco's Modified Eagle Medium (DMEM) with Fetal Bovine Serum (FBS) that is stripped of hormones by charcoal treatment. The media is then removed, the cells are washed once with Phosphate buffer saline solution, and 50 μL Dulbecco's Modified Eagle Medium (DMEM) with Fetal Bovine Serum (FBS) that is stripped of hormones by charcoal treatment is added. Compounds of the disclosure are then added to the wells in eight concentration spanning 10 μM to 4.5 nM, and the plates are incubated for an additional 60 minutes at 37° C. 17α-OH Progesterone is then added (1.0 μM) and the plates are incubated for an additional 45 minutes at 37° C. After incubation, 50 uL of the supernatant (medium) is transferred into a fresh plate and 150 uL of an acetonitrile solution containing 200 ng/ml of Telmisartan is added.

For data set [3], the target named is recombinant CYP-11 (Homo sapiens (Human), UniProt P15538). Nature of the data set: Cyp11 assay protocol (cortisol formation from 11-deoxycortisol, LC/MS). Format: cell-based. The conditions noted are these: AD293 cells over-expressing recombinant CYP-11. Here is the method: as §1, with “Cyp11” for “Cyp21”, “CYP-11” for “CYP-21”, “(15,000” for “(10,000”, “11-deoxycortisol” for “17α-OH Progesterone”, “(2.0” for “(1.0”, “12 hours” for “45 minutes”

Data set [4] is described as follows: Pharmacokinetic study in the guinea pig, 10 mg/kg oral dosing. The data set is classed as in vivo. The arrangement: DNAUC(0-inf): unit not given beside the values. The conditions noted are these: for DNAUC(0-inf): dose-normalised AUC; for AUC(0-inf) / Cmax / half-life / AUC / MRT: in vivo; for AUC: read-out: AUC0_last; for MRT: read-out: MRT0_last. On the procedure: Pharmacokinetic studies in the guinea pig were run using 1 mg/kg IV dosing (20% DMA, 40% TEG, 40% water) and 10 mg/kg oral dosing (2% Tween-80, 98% HPMC (1% water)).

Chain of recombinant CYP-21 (P08686 whole entry, species assumed): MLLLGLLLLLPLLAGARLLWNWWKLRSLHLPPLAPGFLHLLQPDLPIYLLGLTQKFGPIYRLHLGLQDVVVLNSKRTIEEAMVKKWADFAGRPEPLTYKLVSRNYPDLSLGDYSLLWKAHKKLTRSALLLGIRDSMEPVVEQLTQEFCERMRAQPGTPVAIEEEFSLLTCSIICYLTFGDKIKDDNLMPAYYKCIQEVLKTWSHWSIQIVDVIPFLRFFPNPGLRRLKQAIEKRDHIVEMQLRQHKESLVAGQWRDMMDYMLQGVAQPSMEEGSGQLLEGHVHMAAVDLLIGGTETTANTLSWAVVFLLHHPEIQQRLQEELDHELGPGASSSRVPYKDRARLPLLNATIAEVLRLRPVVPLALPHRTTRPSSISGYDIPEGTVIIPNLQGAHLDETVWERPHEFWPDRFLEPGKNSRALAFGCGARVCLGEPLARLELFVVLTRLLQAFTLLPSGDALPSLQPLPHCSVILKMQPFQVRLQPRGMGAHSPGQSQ
Chain of recombinant CYP-11 (P15538 25-503): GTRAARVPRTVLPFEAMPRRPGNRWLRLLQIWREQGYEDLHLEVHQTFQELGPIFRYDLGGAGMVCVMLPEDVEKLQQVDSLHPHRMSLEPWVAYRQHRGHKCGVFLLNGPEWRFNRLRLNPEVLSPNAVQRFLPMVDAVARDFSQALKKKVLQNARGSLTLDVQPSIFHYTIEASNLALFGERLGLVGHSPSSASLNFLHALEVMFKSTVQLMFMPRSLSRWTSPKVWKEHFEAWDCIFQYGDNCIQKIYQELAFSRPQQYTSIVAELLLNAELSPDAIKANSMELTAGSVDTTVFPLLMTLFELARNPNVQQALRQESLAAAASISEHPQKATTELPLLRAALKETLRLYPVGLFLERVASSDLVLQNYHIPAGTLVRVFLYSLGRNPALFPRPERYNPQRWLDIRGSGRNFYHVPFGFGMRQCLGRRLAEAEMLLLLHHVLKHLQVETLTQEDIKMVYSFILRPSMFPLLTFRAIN
Chain of recombinant CYP-17 (P05093 whole entry, species assumed): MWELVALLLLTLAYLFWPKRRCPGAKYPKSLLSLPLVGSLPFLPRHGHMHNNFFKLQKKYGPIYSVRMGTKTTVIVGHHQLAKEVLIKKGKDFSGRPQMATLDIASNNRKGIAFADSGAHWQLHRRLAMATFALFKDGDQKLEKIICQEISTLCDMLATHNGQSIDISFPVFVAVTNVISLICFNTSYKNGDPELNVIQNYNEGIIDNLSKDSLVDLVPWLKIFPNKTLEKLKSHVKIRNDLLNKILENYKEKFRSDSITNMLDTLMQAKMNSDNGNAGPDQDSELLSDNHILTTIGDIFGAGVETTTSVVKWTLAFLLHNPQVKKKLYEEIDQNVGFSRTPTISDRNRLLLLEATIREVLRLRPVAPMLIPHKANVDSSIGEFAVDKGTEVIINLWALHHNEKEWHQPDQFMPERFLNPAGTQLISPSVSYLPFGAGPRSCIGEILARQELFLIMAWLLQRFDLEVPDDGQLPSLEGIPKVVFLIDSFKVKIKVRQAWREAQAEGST

The pIC50 is −log10 of the IC50, conventionally taken in molar units. With `O=S(=O)(C1CC1)N1CCN(c2ccc(/C=C/c3cc(F)cc(-c4ccncc4)c3)cc2)CC1` [Example 35], the negative-log IC50 (pIC50) in data set [1] was 8.30; in data set [2], 6.41; in data set [3], 6.85.

In the case of `CC(=O)N1CCN(c2ccc(/C=C/c3cc(Cl)cc(C(O)(c4cccnc4)C(C)C)c3)cc2)CC1` (stereo not drawn) [Example 29], the negative-log IC50 (pIC50) in data set [1] is 6.62; in data set [2], 5.48; in data set [3] it was 6.43.

For the compound `CC(=O)N1CCN(c2ccc(/C=C/c3cc(F)cc(-c4cccnc4)c3)cc2)CC1` [Example 27], in data set [1], the negative-log IC50 (pIC50) is 6.21.

Take `CC(C)S(=O)(=O)N1CCN(c2ccc(CCc3cc(F)cc(-c4ccncc4)c3)cc2)CC1` [Example 42]: the pIC50 was 8.40 in data set [1] and 6.00 in data set [2].

Regarding `CC(C)S(=O)(=O)N1CCN(c2ccc(/C=C/c3cc(F)cc(-c4ccncc4)c3)cc2)CC1` [Example 40], the results for the negative-log IC50 (pIC50) in data set [1] and in data set [2] were 9.00 and 6.72, respectively.

In the case of `CCOC(=O)CNC(=O)N1CCN(c2ccc(/C=C/c3cc(Cl)cc(Cn4ccnc4)c3)cc2)CC1` [Example 20], the figures for the pIC50 in data set [1], in data set [2] and in data set [3] were 7.39, 6.44 and 7.57, respectively.

Take `CCOC(=O)CNC(=O)NC1CCN(c2ccc(/C=C/c3cc(Cl)cc(Cn4ccnc4)c3)cc2)CC1` [Example 47]: the negative-log IC50 (pIC50) was 8.46 in data set [1], 7.14 in data set [2] and 6.60 in data set [3].

As for `Fc1cc(/C=C/c2ccc(Br)cc2)cc(-c2ccncc2)c1` [Example 24], the pIC50 in data set [1] was 7.38; in data set [2], 5.59.

On to `CC(=O)N1CCN(c2ccc(/C=C/c3cc(Cl)cc(Cc4cccnc4)c3)cc2)CC1` [Example 28], for which the pIC50 is 7.46 in data set [1] and 6.74 in data set [3].

Turning to `O=C(C1CC1)N1CCN(c2ccc(/C=C/c3cc(Cl)cc(Cn4ccnc4)c3)cc2)CC1` [Example 22], the pIC50 in data set [1] was 7.32; in data set [2] it was 5.85; in data set [3], 7.72.

Turning to `O=S(=O)(c1cccnc1)N1CCN(c2ccc(/C=C/c3cc(Cl)cc(Cn4ccnc4)c3)cc2)CC1` [Example 21], the pIC50 in data set [1] was 7.77; in data set [2], 5.86; in data set [3], 8.40.

Broadly, the AUC(0-inf) is total exposure, with the tail of the curve extrapolated. In general, Cmax refers to the peak of the concentration-time curve. Usually half-life stands for the time needed for the level to fall by half in the phase considered. On to `O=S(=O)(N1CCN(c2ccc(/C=C/c3cc(F)cc(-c4ccncc4)c3)cc2)CC1)C(F)(F)F` [drawing 726], for which, in data set [4], the AUCExtra is listed as 25.87%, the “DNAUC(0-inf)” value stood at 164.6, the total exposure AUC(0-inf) was 2450 ng·h/mL and the Cmax was found to be 271 ng/mL. In data set [4], the half-life was 5.3 h, the AUC was found to be 1650 ng·h/mL and the MRT amounted to 5.01 h.

Take `CCS(=O)(=O)N1CCN(c2ccc(CCc3cc(F)cc(-c4ccncc4)c3)cc2)CC1` [Example 44]: the results for the pIC50 in data set [1], in data set [2] and in data set [3] were 8.70, 5.80 and 6.48, respectively.

Regarding `Fc1cc(CCc2ccc(-c3ccncc3)cc2)cc(-c2ccncc2)c1` [Example 37], the pIC50 in data set [1] is 6.72; in data set [2], 6.31.

As for `CCOC(=O)CNC(=O)N1CCN(c2ccc(CCc3cc(F)cc(-c4ccncc4)c3)cc2)CC1` [Example 43], the pIC50 was 8.15 in data set [1] and 6.80 in data set [3].

`Fc1cc(/C=C/c2ccc(-c3ccncc3)cc2)cc(-c2ccncc2)c1` [Example 25]: the negative-log IC50 (pIC50) in data set [1] is 7.96; in data set [2], 6.07; in data set [3], 5.43.

Regarding `CC(=O)N1CCN(c2ccc(/C=C/c3cc(Cl)cc(COc4cccnc4)c3)cc2)CC1` [Example 26], the negative-log IC50 (pIC50) in data set [1] is 6.87; in data set [3] it was 6.85.

`O=S(=O)(C1CC1)N1CCN(c2ccc(CCc3cc(F)cc(-c4ccncc4)c3)cc2)CC1` [Example 41]: the results for the negative logarithm of the IC50 (pIC50) in data set [1] and in data set [2] were 8.52 and 5.92, respectively.

For the compound `CCOC(=O)CNC(=O)N1CCN(c2ccc(/C=C/c3cc(F)cc(-c4ccncc4)c3)cc2)CC1` [Example 34], the pIC50 in data set [1] was 8.10; in data set [2], 6.00; in data set [3], 5.89.

For the compound `CC(=O)N1CCN(c2ccc(/C=C/c3cc(F)cc(-c4ccncc4)c3)cc2)CC1`, in data set [4], the AUCExtra is given as 43.93%, the “DNAUC(0-inf)” value was 823.1, the AUC(0-inf) was 14900 ng·h/mL and the Cmax came out at 1020 ng/mL. Besides, in data set [4], the half-life was 6 h, the AUC was found to be 8230 ng·h/mL and the MRT worked out at 5.56 h.

With `CCS(=O)(=O)N1CCN(c2ccc(/C=C/c3cc(F)cc(-c4ccncc4)c3)cc2)CC1` [Example 36], the negative-log IC50 (pIC50) in data set [1] was 8.30; in data set [2] it was 6.28; in data set [3] it was 6.70.

As to `Clc1cc(/C=C/c2ccc(N3CCN(CC4CC4)CC3)cc2)cc(Cn2ccnc2)c1` [Example 19], the pIC50 in data set [1] was 7.77; in data set [2], 6.23; in data set [3], 7.96.

Regarding `CC(=O)N1CCN(c2ccc(/C=C/c3cc(Cl)cc(-c4ccncc4)c3)cc2)CC1` [Example 31], the pIC50 in data set [1] was 8.30; in data set [2], 5.96.

For the compound `N#Cc1cccc(C(=O)N2CCN(c3ccc(/C=C/c4cc(Cl)cc(Cn5ccnc5)c4)cc3)CC2)c1` [Example 18], the values for the pIC50 in data set [1] and in data set [3] were 7.66 and 8.40, respectively.

`O=S(=O)(N1CCN(c2ccc(/C=C/c3cc(F)cc(-c4ccncc4)c3)cc2)CC1)C(F)(F)F` [Example 39]: the negative logarithm of the IC50 (pIC50) in data set [1] is 8.30; in data set [2], 6.50; in data set [3], 5.82.

Consider `O=S(=O)(N1CCN(c2ccc(CCc3cc(F)cc(-c4ccncc4)c3)cc2)CC1)C(F)(F)F` [Example 45], for which the results for the negative logarithm of the IC50 (pIC50) in data set [1], in data set [2] and in data set [3] were 7.78, 5.55 and 6.74, respectively.

For `O=S(=O)(C1CC1)N1CCN(c2ccc(/C=C/c3cc(F)cc(-c4ccncc4)c3)cc2)CC1` [drawing 724], in data set [4], the “DNAUC(0-inf)” value is on record as 160, the highest level (Cmax) was 172 ng/mL, the AUC was found to be 1600 ng·h/mL and the MRT came to 7 h.

As to `N#Cc1cccc(CN2CCN(c3ccc(/C=C/c4cc(Cl)cc(Cn5ccnc5)c4)cc3)CC2)c1` [Example 23], the pIC50 in data set [1] was 7.60; in data set [2], 6.55; in data set [3], 8.15.

As to `O=S(=O)(c1cccnc1)N1CCN(c2ccc(/C=C/c3cc(F)cc(-c4ccncc4)c3)cc2)CC1` [Example 33], the negative logarithm of the IC50 (pIC50) in data set [1] is 8.15; in data set [2], 5.48; in data set [3] it was 6.66.

In the case of `CC(=O)N1CCN(c2ccc(/C=C/c3cc(Cl)cc(-c4cccnc4)c3)cc2)CC1` [Example 32], in data set [1], the negative-log IC50 (pIC50) was 6.21.

On to `Fc1cc(/C=C/c2ccc(N3CCN(CC4CC4)CC3)cc2)cc(-c2ccncc2)c1` [Example 38], for which the pIC50 is 8.30 in data set [1], 6.11 in data set [2] and 7.27 in data set [3].

As to `CCS(=O)(=O)N1CCN(c2ccc(/C=C/c3cc(F)cc(-c4ccncc4)c3)cc2)CC1` [drawing 725], in data set [4], the AUCExtra was determined as 18.25%, the “DNAUC(0-inf)” value came to 330.1, the AUC(0-inf) is 4190 ng·h/mL and the Cmax came to 540 ng/mL. Further, in data set [4], the half-life was 4.8 h, the AUC was determined as 3300 ng·h/mL and the MRT worked out at 5.54 h.

Consider `CC(C)=C(c1cccnc1)c1cc(Cl)cc(/C=C/c2ccc(-c3ccncc3)cc2)c1` [Example 46], for which, in data set [1], the pIC50 is 6.52.

`CC(=O)N1CCN(c2ccc(/C=C/c3cc(Cl)cc(C(=C(C)C)c4cccnc4)c3)cc2)CC1` [Example 30]: the figures for the pIC50 in data set [1], in data set [2] and in data set [3] were 6.68, 5.62 and 5.74, respectively.
